The data set can be described thus: Water uptake behavior study in powder matrices at 33% Relative Humidity. Type of data set: physicochemical. The conditions noted are these: all samples tested (maltodextrin, skimmed milk powder, full cream milk powder, growing up milk powder), co-crystal 7.6% by weight, 22 days, versus equivalent dry-mix CaCl2.2 H2O+sucrose. The procedure: The water uptake behavior was studied for the co-crystal of Sucrose.CaCl2.4 H2O in four different powder matrices: Maltodextrin (FIG. 5), skimmed milk powder (FIG. 6), full cream milk powder with 26% fat (FIG. 7), and powdered “growing up milk” (Nestlé BEBA3) (FIG. 8). For each matrix, three different calcium containing material were mixed into the powder to simulate calcium fortification. Powders were stored in a desiccator at 33% Relative Humidity over 22 days. The water uptake was measured every 3-4 days by tracking the weight change. The water uptake is shown in FIGS. 5 to 8): powder matrix alone (♦), powder matrix with CaCl2. 2 H2O (2.1% by weight): 13.59 g of matrix+290 mg of CaCl2.2 H2O (●), powder matrix with co-crystalline Sucrose.CaCl2.4 H2O (7.6% by weight): 13.59 g of matrix+1.04 g of co-crystal (▴), and powder matrix with the equivalent dry-mix: 13.59 g of matrix+290 mg of CaCl2.2 H2O+670 mg of sucrose (▪).

On to `O.O.O.O.OC[C@H]1O[C@@](CO)(O[C@H]2O[C@H](CO)[C@@H](O)[C@H](O)[C@H]2O)[C@@H](O)[C@@H]1O.[Ca+2].[Cl-].[Cl-]` [co-crystal, Sucrose.CaCl2.4 H2O], for which the “water uptake (weight change) compared with the dry mix” value was “lower for the co-crystal than for the dry mix”.

The values above are taken from patent US20200315231A1, “CO-C[…]” (NESTES S,A,, priority 2016, published 2020).
